What all share (format): nucleic-acid assay
For assay [1], the system named is Nucleic Acid. Kind of assay: Binding affinity to G-quadruplex F21T DNA assessed as change in melting temperature at 3 uM under Na+ ionic conditions by FRET assay.
For assay [2], the system named is Nucleic Acid. Kind of assay: Binding affinity to G-quadruplex F21T DNA assessed as change in melting temperature at 3 uM under K+ ionic conditions by FRET assay.
The test system of assay [3] is Nucleic Acid. The assay can be described thus: Binding affinity to G-quadruplex F21T DNA assessed as quadruplex stabilization at 3 uM by FRET assay in presence of duplex ds26 oligonucleotide.
Assay [4] deals with Nucleic Acid. Kind of assay: Binding affinity to G-quadruplex F21T DNA assessed as change in melting temperature at 0.6 uM under K+ ionic conditions by FRET assay.
The test system of assay [5] is Nucleic Acid. Kind of assay: Binding affinity to G-quadruplex F21T DNA assessed as change in melting temperature at 0.8 uM under K+ ionic conditions by FRET assay.
The test system of assay [6] is Nucleic Acid. Kind of assay: Binding affinity to G-quadruplex F21T DNA assessed as change in melting temperature at 0.1 uM under K+ ionic conditions by FRET assay.
The test system of assay [7] is Nucleic Acid. The assay can be described thus: Binding affinity to G-quadruplex F21T DNA assessed as change in melting temperature at 0.3 uM under K+ ionic conditions by FRET assay.

For orientation: ΔTm means the change in melting temperature against a reference sample.

Activity calls are given as the source filed them. No cut-off for these calls is given here.

For `O=C(NCCN1CCCCC1)c1ccc(-c2csc3nc(-c4ccc(OCCN5CCCCC5)cc4)nn23)cc1`, the ΔTm came out at 5 °C in the assay on Nucleic Acid [1] and 11.2 °C in the assay with Nucleic Acid [2]. In the assay with Nucleic Acid [3], the result was Active.
Consider `O=C(NCCN1CCCCC1)c1ccc(-c2csc3nc(-c4ccc(O)cc4)nn23)cc1`, for which the ΔTm was under 1 °C with Nucleic Acid [1] and 1.8 °C in the assay on Nucleic Acid [2].
As to `O=C(NCCN1CCCCC1)c1ccc(-c2csc3nc(-c4ccc(OCCN5CCCC5)cc4)nn23)cc1`, the ΔTm with Nucleic Acid [1] turned out to be 5.9 °C; with Nucleic Acid [2] it was 14.6 °C. In addition, in the assay with Nucleic Acid [3], the outcome was inactive.
`O=C(NCCN1CCCCC1)c1ccc(-c2csc3nc(-c4ccc(OCc5ccccc5)cc4)nn23)cc1`: the ΔTm was under 1 °C in the assay with Nucleic Acid [1] and 2.7 °C in the assay on Nucleic Acid [2].
In the same order, the values of `c1ccc(COc2ccc(-c3nc4scc(-c5ccc(OCc6ccccc6)cc5)n4n3)cc2)cc1` are under 1 °C and under 1 °C.
Turning to `Cc1oc2nc1-c1nc(co1)-c1nc(co1)-c1nc(co1)-c1nc(co1)-c1nc(co1)C1=NC(CS1)c1nc-2c(C)o1` (stereo not drawn), the ΔTm in the assay on Nucleic Acid [4] is 10 °C; in the assay with Nucleic Acid [5] it was 15 °C.
For `NC(=O)c1cccc(C(N)=O)n1`, the ΔTm in the assay on Nucleic Acid [6] was determined as 10 °C; with Nucleic Acid [7], 15 °C.
`c1cc(-c2nc3scc(-c4ccc(OCCN5CCCCC5)cc4)n3n2)ccc1OCCN1CCCCC1`: the ΔTm turned out to be 2.1 °C in the assay on Nucleic Acid [1] and 8.7 °C in the assay with Nucleic Acid [2]. The result with Nucleic Acid [3] was Active.
Turning to `CCOC(=O)c1ccc(-c2csc3nc(-c4ccc(OCc5ccccc5)cc4)nn23)cc1`, the ΔTm in the assay on Nucleic Acid [1] and in the assay on Nucleic Acid [2] was under 1 °C in each case.
For `Oc1ccc(-c2nc3scc(-c4ccc(O)cc4)n3n2)cc1`, the ΔTm in the assay with Nucleic Acid [1] and in the assay with Nucleic Acid [2] was under 1 °C throughout.
